# Experimental data as given in publication PMC3596558, “Identification of the metabolites of polybrominated diphenyl ether 99 and its related cytochrome P450s^” (Journal of Biomedical Research, 2010).
# “And” between values parts separate entries of the source, which are not always exact repeats. Identical values can stand only once. “Also recorded” adds a separate entry of the source.
# Assays:
# CYP2B1/2 mRNA = CYP2B1/2 mRNA expression in primary rat hepatocytes, quantitative RT-PCR; assay type: cell-based; conditions: 10 µM BDE-99, 24 h; P < 0.05; n = 3
# Description: (§1) All the hepatocyte batches were exposed to BDE-99 at a nominal concentration of 10 µM, equivalent to 10 nM of compound per well. A stock solution of BDE-99 which was 200 times the final concentration in tissue culture medium was prepared in DMSO and stored at -20°C. Separate 12-well plates were used for the metabolism and gene expression analysis. To produce metabolites of BDE-99, the hepatocytes were treated once every 24 h for 3 days to take advantage of the increased activity of cells and potential increase in metabolite formation. The hepatocytes cultured with medium without BDE-99 were set up as controls. During medium exchange of the hepatocytes, we collected and pooled the contents from each well. After incubation, the hepatocytes were removed from the wells using 1 mL methanol to disrupt cell membranes. The contents were subsequently transferred to clean glass test tubes for extraction. For the gene expression analysis, the rat hepatocytes were exposed to 10 µM BDE-99 for 24 h. […]
# (§2) The expression of several genes that encode potential biotransforming enzymes, such as CYP1A2, CYP2B1/2, CYP3A23/3A1, GSTM1 and GSTP1, were determined using quantitative RT-PCR, and GAPDH was used as a reference to calculate the expression levels. […] At the end of each step, the fluorescence intensity of evagreen was read on the 7900 system. […]
# human CYP1A1 = biological target: T1, human CYP1A1 (Homo sapiens, UniProt P04798); assay: Metabolic clearance (parent depletion) of BDE-99 by recombinant human CYP1A1; assay type: in vitro ADME; conditions: percentage parent BDE-99 metabolized during a 20-min incubation, 20 µM BDE-99, 37°C, mean ±SD, n = 3
# T1 construct: made in house; host or cells: Sf9 insect cells (Bac-to-Bac baculovirus), microsomes
# T1 sequence (P04798 1-512): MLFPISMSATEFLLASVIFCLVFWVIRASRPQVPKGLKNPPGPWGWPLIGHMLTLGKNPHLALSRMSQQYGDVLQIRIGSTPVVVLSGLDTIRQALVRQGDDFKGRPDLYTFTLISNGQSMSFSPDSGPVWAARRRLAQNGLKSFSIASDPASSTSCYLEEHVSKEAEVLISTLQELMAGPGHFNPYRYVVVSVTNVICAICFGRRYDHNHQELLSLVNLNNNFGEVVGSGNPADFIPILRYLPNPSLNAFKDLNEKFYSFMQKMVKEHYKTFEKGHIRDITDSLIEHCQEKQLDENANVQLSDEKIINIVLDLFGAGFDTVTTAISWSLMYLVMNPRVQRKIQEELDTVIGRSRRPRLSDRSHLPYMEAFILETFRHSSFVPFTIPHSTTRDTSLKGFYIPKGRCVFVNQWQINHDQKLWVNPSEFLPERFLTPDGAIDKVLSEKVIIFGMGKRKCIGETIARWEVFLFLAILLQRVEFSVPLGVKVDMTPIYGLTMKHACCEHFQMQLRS
# Excerpt: (§3) All the proteins were expressed in a Bac-to-Bac baculovirus expression system (Invitrogen Corp., USA) following the manufacturer's instructions. Briefly, the CYP1A1 (NM_000499), CYP1A2 (NM_000761), CYP2A6 (NM_000762), CYP2E1 (NM_000773) and CYP3A4 (NM_017460) cDNA were first transformed to the recombinant bacmid, and subsequently transfected into the Sf9 cells to produce recombinant baculovirus particles, and further to get the baculoviral stock which was finally used to express CYPs proteins in the culture medium containing 0.1 µM ferric citrate and 0.1 µM 5-ALA. After being incubated for 72 h, the infected Sf9 cells were harvested and the microsomes were prepared by sonication using an Ultrasonic Processor (CPX130, Cole-Parmer Scientific Instruments, USA) and differential centrifugation. The protein expressed from the blank vector was used as a negative control. The prepared microsomes were stored at -80°C prior to usage.
# (§4) Each human P450 was screened for its ability to oxidize and eliminate BDE-99 from the assay mixture. […]
# (§5) Hepatocytes and media were extracted using methods developed for the extraction of phenolic and neutral compounds from serum. […] Rates of elimination were determined by comparing the concentration of parent compound before and after the reaction.
# human CYP1A2 = biological target: T2, human CYP1A2 (Homo sapiens, UniProt P05177); assay: Metabolic clearance (parent depletion) of BDE-99 by recombinant human CYP1A2; assay type: in vitro ADME; conditions: percentage parent BDE-99 metabolized during a 20-min incubation, 20 µM BDE-99, 37°C, mean ±SD, n = 3
# T2 construct: made in house; host or cells: Sf9 insect cells (Bac-to-Bac baculovirus), microsomes
# T2 sequence (P05177 1-516): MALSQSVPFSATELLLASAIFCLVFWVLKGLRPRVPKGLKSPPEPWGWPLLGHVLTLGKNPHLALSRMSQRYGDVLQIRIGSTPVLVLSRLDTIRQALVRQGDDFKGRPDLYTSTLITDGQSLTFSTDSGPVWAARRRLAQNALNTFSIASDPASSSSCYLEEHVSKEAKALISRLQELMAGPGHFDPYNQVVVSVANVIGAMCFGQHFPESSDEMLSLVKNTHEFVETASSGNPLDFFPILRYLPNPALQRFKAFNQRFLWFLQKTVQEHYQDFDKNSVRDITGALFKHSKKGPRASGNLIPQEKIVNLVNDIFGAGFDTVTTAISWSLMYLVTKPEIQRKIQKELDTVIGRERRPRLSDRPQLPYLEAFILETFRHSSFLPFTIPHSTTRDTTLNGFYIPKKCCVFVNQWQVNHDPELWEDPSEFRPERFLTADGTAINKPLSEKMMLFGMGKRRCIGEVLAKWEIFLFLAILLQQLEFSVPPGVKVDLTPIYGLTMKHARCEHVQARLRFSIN
# Excerpt: as §3, §4, §5
# CYP3A23/3A1 mRNA = CYP3A23/3A1 mRNA expression in primary rat hepatocytes, quantitative RT-PCR; assay type: cell-based; conditions: 10 µM BDE-99, 24 h; P < 0.05; n = 3
# Description: as §1, §2
# primary rat hepatocytes = assay: Metabolism of BDE-99 in primary rat hepatocytes, GC/MS of extracts; assay type: in vitro ADME; conditions: for metabolite of BDE-99 detected by GC/MS (qualitative): compared with commercial standards
# Excerpt: Primary rat hepatocytes were isolated from three individual male Sprague-Dawley CD rats (body weight 220-250 g) obtained from Laboratory Animal Center of Nanjing Medical University, using the two-step in situ collagenase perfusion method. Then the hepatocytes were purified by percoll density gradient separation and washed twice before being resuspended in the attachment medium. Cells viability exceeded 90% as determined by trypan blue exclusion. For the cell culture, the isolated hepatocytes were seeded in Type I collagen-coated 12-well plates at a density of 150, 000 cells/cm^2 in Williams' Medium E containing 5% fetal calf serum, 100 U/mL penicillin and 100 µg/mL streptomycin, and then incubated in a humidified atmosphere of 5% CO2 in air at 37°C. After 2-3 h incubation, the unattached cells were poured off and the medium was replaced with 1 mL HepatoZYME-SFM supplemented with 100 U/mL penicillin, 100 µg/mL streptomycin, 20 µg/L EGF and 20 µg/L HGF.
# All the hepatocyte batches were exposed to BDE-99 at a nominal concentration of 10 µM, equivalent to 10 nM of compound per well. A stock solution of BDE-99 which was 200 times the final concentration in tissue culture medium was prepared in DMSO and stored at -20°C. Separate 12-well plates were used for the metabolism and gene expression analysis. To produce metabolites of BDE-99, the hepatocytes were treated once every 24 h for 3 days to take advantage of the increased activity of cells and potential increase in metabolite formation. The hepatocytes cultured with medium without BDE-99 were set up as controls. During medium exchange of the hepatocytes, we collected and pooled the contents from each well. After incubation, the hepatocytes were removed from the wells using 1 mL methanol to disrupt cell membranes. The contents were subsequently transferred to clean glass test tubes for extraction. For the gene expression analysis, the rat hepatocytes were exposed to 10 µM BDE-99 for 24 h. Wells treated with media containing aliquots of DMSO were set up as controls.
# Hepatocytes and media were extracted using methods developed for the extraction of phenolic and neutral compounds from serum. Briefly, samples were first spiked with one internal standard, BDE-77, and extracted using methyl-tert-butyl ether/hexane:1/1(v/v). Lipids were removed from the extracts with concentrated sulfuric acid, and then the neutral and phenolic compounds were separated using a basic aqueous solution of potassium hydroxide. The phenolic fraction was derivatized with acetonitrile / methanol / water / pyrimidine: 5/2/2/1(v/v), then methyl chloroformate was added to produce methyl formate BDE congeners. After derivatization, samples were evaporated to complete dryness using a slow stream of nitrogen and reconstituted in hexane. Each human P450s assay sample was added into one internal standard BDE-77 before extraction. Proteins were denatured with 0.5 mL 6 M hydrochloric acid, and then 3 mL hexane was added for extraction. This step was repeated three times. The extraction was evaporated to complete dryness using a slow stream of nitrogen and reconstituted in 0.5 mL acetonitrile. Rates of elimination were determined by comparing the concentration of parent compound before and after the reaction.
# The underivatized and derivatized extracts were analyzed using a GC/MS system (Trace DSQ ThermoFisher Scientific, USA) with electron impact (EI) ionization. Separation was performed on a DB-5MS column (30 m×0.25 mm i. d. ×0.25 µm thickness) (Agilent Technologies, Inc., USA). The inlet temperature was 260°C, and the injection was performed in pulsed splitless mode. The oven initial temperature was 110°C and was held for 1 min. The temperature was ramped to 210°C at 12°C/min, and a second ramp was performed to 250°C at 4°C/min and was […]. Finally, the oven was ramped to 300°C at 20°C/min and this step was held for 10 min to give a total run time of 32.83 min. […]
# human CYP3A4 = biological target: T3, human CYP3A4 (Homo sapiens, UniProt P08684); assay: Metabolic clearance (parent depletion) of BDE-99 by recombinant human CYP3A4; assay type: in vitro ADME; conditions: percentage parent BDE-99 metabolized during a 20-min incubation, 20 µM BDE-99, 37°C, mean ±SD, n = 3
# T3 construct: made in house; host or cells: Sf9 insect cells (Bac-to-Bac baculovirus), microsomes
# Excerpt: as §3, §4, §5
# GSTM1 mRNA = GSTM1 mRNA expression in primary rat hepatocytes, quantitative RT-PCR; assay type: cell-based; conditions: 10 µM BDE-99, 24 h; n = 3
# Description: as §1, §2
# human CYP2A6 = biological target: T4, human CYP2A6 (Homo sapiens, UniProt P11509); assay: Metabolic clearance (parent depletion) of BDE-99 by recombinant human CYP2A6; assay type: in vitro ADME; conditions: percentage parent BDE-99 metabolized during a 20-min incubation, 20 µM BDE-99, 37°C, mean ±SD, n = 3
# T4 construct: made in house; host or cells: Sf9 insect cells (Bac-to-Bac baculovirus), microsomes
# T4 sequence (P11509 1-494): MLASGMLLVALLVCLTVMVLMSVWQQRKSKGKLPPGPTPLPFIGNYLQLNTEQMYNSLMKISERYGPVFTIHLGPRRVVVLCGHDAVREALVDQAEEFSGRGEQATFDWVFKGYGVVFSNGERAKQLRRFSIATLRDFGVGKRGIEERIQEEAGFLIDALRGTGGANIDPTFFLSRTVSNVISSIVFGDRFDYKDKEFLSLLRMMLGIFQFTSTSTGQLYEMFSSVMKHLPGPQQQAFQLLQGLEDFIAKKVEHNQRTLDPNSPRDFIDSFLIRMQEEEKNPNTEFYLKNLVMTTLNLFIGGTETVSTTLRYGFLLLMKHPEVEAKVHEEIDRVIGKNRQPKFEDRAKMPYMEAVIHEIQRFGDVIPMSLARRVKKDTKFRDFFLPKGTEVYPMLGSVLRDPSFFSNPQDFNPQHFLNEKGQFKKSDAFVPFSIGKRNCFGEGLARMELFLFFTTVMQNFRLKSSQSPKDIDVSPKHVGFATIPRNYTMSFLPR
# Excerpt: as §3, §4, §5
# human CYP2E1 = biological target: T5, human CYP2E1 (Homo sapiens, UniProt P05181); assay: Metabolic clearance (parent depletion) of BDE-99 by recombinant human CYP2E1; assay type: in vitro ADME; conditions: 20-min incubation, 20 µM BDE-99, 37°C, N.S. = no significant difference (vs blank vector control)
# T5 construct: made in house; host or cells: Sf9 insect cells (Bac-to-Bac baculovirus), microsomes
# Excerpt: as §3, §4, §5
# GSTP1 mRNA = GSTP1 mRNA expression in primary rat hepatocytes, quantitative RT-PCR; assay type: cell-based; conditions: 10 µM BDE-99, 24 h; n = 3
# Description: as §1, §2
# CYP1A2 mRNA = CYP1A2 mRNA expression in primary rat hepatocytes, quantitative RT-PCR; assay type: cell-based; conditions: 10 µM BDE-99, 24 h; P < 0.05; n = 3
# Description: as §1, §2
# [1] = hepatocytes exposed to 10 µM BDE-99
# T5 sequence (P05181 whole entry): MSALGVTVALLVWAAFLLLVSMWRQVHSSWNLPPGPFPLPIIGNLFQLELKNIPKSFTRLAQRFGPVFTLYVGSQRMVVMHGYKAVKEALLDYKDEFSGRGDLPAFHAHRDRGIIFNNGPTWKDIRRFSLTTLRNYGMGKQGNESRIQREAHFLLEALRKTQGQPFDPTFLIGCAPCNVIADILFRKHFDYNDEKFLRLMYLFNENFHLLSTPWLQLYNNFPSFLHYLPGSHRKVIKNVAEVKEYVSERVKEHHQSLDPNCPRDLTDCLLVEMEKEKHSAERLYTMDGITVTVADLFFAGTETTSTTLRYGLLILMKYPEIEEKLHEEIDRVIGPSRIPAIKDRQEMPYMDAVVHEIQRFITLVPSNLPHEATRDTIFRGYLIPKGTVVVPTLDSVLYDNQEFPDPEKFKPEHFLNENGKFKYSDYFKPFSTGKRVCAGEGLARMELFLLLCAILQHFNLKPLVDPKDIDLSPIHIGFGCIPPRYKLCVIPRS
# T3 sequence (P08684 whole entry): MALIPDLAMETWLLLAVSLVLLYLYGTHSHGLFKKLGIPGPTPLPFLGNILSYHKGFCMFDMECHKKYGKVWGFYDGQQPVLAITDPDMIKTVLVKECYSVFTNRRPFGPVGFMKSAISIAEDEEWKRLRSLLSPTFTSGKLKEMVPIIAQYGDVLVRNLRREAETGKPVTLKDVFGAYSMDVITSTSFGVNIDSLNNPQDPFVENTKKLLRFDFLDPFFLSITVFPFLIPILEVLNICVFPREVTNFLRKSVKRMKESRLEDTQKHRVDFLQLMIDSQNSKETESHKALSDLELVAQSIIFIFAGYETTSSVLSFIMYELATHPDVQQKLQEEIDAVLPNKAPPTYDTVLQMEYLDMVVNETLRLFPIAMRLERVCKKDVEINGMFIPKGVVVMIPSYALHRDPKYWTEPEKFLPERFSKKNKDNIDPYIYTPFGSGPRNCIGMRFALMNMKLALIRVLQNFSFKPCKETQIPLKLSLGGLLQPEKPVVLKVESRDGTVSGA
compound,measurement,setting,value
"Brc1ccc(Oc2cc(Br)c(Br)cc2Br)c(Br)c1 [BDE-99, 2,2′,4,4′,5-pentabromodiphenyl ether]",average percentage increase of CYP2B1/2 mRNA expression vs control,CYP2B1/2 mRNA,22%
same,Clearance rate of BDE-99 (%),human CYP1A1,14.5%
same,Clearance rate of BDE-99 (%),human CYP1A2,30.3% and 30.3±6.5%
same,average percentage increase of CYP3A23/3A1 mRNA expression vs control,CYP3A23/3A1 mRNA,124%
same,BDE-99 mass unrecovered,"primary rat hepatocytes; after 24-h incubation, initial 10.21±0.50 nmol/well",about 13.5%
same,metabolite of BDE-99 detected by GC/MS (qualitative),primary rat hepatocytes; [1],no MeO metabolite was determined
same,Clearance rate of BDE-99 (%),human CYP3A4,27.7% and 27.7±5.1%
same,"GSTM1 mRNA expression, treated cells vs control cells",GSTM1 mRNA,no differences
same,Clearance rate of BDE-99 (%),human CYP2A6,11.6% and 11.6±2.3%
same,Clearance rate of BDE-99 (%),human CYP2E1,seemed not to be associated with the BDE-99 metabolism; also recorded: did not contribute to any metabolism of BDE-99; also recorded: N.S. ^b
same,"GSTP1 mRNA expression, treated cells vs control cells",GSTP1 mRNA,no differences
same,average percentage increase of CYP1A2 mRNA expression vs control,CYP1A2 mRNA,15%
Brc1ccc(Oc2ccc(Br)cc2Br)c(Br)c1 [BDE-47],metabolite of BDE-99 detected by GC/MS (qualitative),primary rat hepatocytes; [1],found in all hepatocytes exposed to BDE-99
same,average concentration of metabolite BDE-47 formed from BDE-99,"primary rat hepatocytes; hepatocytes exposed to 10 µM BDE-99, neutral extracts, GC/MS",215.9±35.8 pmol/well
Oc1cc(Oc2ccc(Br)cc2Br)c(Br)cc1Br [5-OH-BDE-47],metabolite of BDE-99 detected by GC/MS (qualitative),primary rat hepatocytes; [1],identified
Oc1cc(Oc2cc(Br)c(Br)cc2Br)c(Br)cc1Br [5′-OH-BDE-99],metabolite of BDE-99 detected by GC/MS (qualitative),primary rat hepatocytes; [1],identified
"Oc1cc(Br)c(Br)cc1Br [2,4,5-tribromophenol]",metabolite of BDE-99 detected by GC/MS (qualitative),primary rat hepatocytes; [1],identified
